Measurements as given in patent EP0153678A1, “Cinnamic acid derivatives, processes for the preparation thereof and pharmaceutical compositions” (Tanabe Seiyaku Co., Ltd., priority 1984, dated 1985).
Structures can show the parent of a compound that is named as a salt.

How the values were obtained:
[1] = system: pulmonary embolism induced by arachidonic acid; experiment: Prophylactic effect against pulmonary embolism induced by arachidonic acid in mice (method of Kohler et al.); type: in vivo; conditions: for Evalu-tion (shortening rate of the recovery time): ddY male mice, test compound 30 mg/kg orally in 0.25 % CMC, after one hour arachidonic acid 70 mg/kg intravenously; for prophylactic effect against arachidonic acid-induced pulmonary embolism, relative to 3-[4-(3-pyridylmethyl)phenyl]-2-methylacrylic acid hydrochloride: Kohler et al.'s method, times as strong as the known compound
Description: After one hour, arachidonic acid (70 mg/10 ml saline solution/kg) was intravenously administered. […] The time from having had difficulty in breathing and laying till starting to move was counted as a recovery time. When the test animal was died, the longest recovery time during the test was counted. The shortening rate of the recovery time was calculated by the following formula for showing the effect of the test compounds.

[2] = Toxicity compared with the known compound (method not described); conditions: fraction of the toxicity of the sodium salt of the known compound

SMILES	Evalu-tion (shortening rate of the recovery time) [1]	prophylactic effect against arachidonic acid-induced pulmonary embolism, relative to 3-[4-(3-pyridylmethyl)phenyl]-2-methylacrylic acid hydrochloride [1]	toxicity relative to sodium 3-[4-(3-pyridylmethyl)phenyl]-2-methyl--acrylate [2]
CCCOC(c1ccc(C=C(C)C(=O)[O-])cc1)c1cccnc1.[Na+] (stereo not drawn) [sodium α-methyl-4-(α-n-propoxy-3-pyridylmethyl)cinnamate]	+ (evaluated as (+) when it was more than 50 %)	–	–
CC(=Cc1ccc(C(O)c2cccnc2)cc1)C(=O)O (stereo not drawn) [α-methyl-4-(α-hydroxy-3-pyridylmethyl)cinnamic acid]	–	more than 2 times	–
COC(c1ccc(C=C(C)C(=O)O)cc1)c1cccnc1 (stereo not drawn) [sodium α-methyl-4-(α-methoxy-3-pyridylmethyl)cinnamate]	+ (evaluated as (+) when it was more than 50 %)	–	–
CC(=Cc1ccc(C(=O)c2cccnc2)cc1)C(=O)O [hydrochloride]	+ (evaluated as (+) when it was more than 50 %)	–	–
CC(=Cc1ccc(C(O)c2cccnc2)cc1)C(=O)O (stereo not drawn) [α-methyl-4-(α-hydroxy-3-pyridylmethyl)cinnamic acid hydrochloride]	+ (evaluated as (+) when it was more than 50 %)	–	–
CC(=Cc1ccc(Cc2cccnc2)cc1)C(=O)O.Cl [3-[4-(3-pyridylmethyl)phenyl]-2-methylacrylic acid hydrochloride, reference compound]	± (evaluated as (±) when it was from 20 % to less than 50 %)	–	–
CCOC(c1ccc(C=C(C)C(=O)[O-])cc1)c1cccnc1.[Na+] (stereo not drawn) [sodium α-methyl-4-(α-ethoxy-3-pyridylmethyl)cinnamate]	+ (evaluated as (+) when it was more than 50 %)	more than 2 times	about half
